Reference: article PMC9436767, “Optical control of the β2-adrenergic receptor with opto-prop-2: A cis-active azobenzene analog of propranolol” (iScience, 2022)

Biological target: β2-AR (Homo sapiens, UniProt P07550)
Experiment: Kinetic β-arrestin2 recruitment to β2-AR with 360 nm light flashes
Assay type: cell-based
Parameters: expressed in transfected cells; host or cells: HEK293T, transient (PEI)
Conditions: 1 μM with 32 nM isoprenaline; six 5-min cycles of 360 nm flashes
Experimental: It was further explored whether the activity of the β2-AR could be modulated dynamically by treating cells with light (Figure 5). Cells that overexpress a split-nanoluc luciferase biosensor system for βarrestin2 recruitment to the β2-AR were treated with isoprenaline in the presence of Opto-prop-2. A time-dependent activation of the receptor is observed for 10 min after which cells were pulsed with light flashes of 360 nm.
Cells incubated with Opto-prop-2 are depicted in green and magenta before and after illumination, respectively. Data points represent the mean ± SEM of the three experiments, normalized to the luminescence at 10 min as 100%.
HEK293T cells were transiently transfected with 2 μg plasmid DNA per million using linear PEI at a DNA:PEI weight-ratio of 1:6. ([Zarca et al., 2021]) The used DNA plasmids were β2-AR-SmBit (0.4 μg), β-arrestin2-LgBit (0.6 μg) and pcDEF3 (non-coding DNA; 1 μg). The DNA/PEI transfection mix in 150 mM NaCL was vortexed and incubated for 15 min before adding it to a cell suspension with a final concentration of 300,000 cell/mL. Cells were then immediately plated 30,000 cells/well on a white 96-well plate (Greiner). […] After 10 min the protocol setting were switched to treat cells repeadetly with 360 nm light flashes (40 times 200 flashes over 5 min) followed after each 5 min cycle with detection of luminescence, up to a total detection time of 40 min.

Sequence of β2-AR (P07550 whole entry): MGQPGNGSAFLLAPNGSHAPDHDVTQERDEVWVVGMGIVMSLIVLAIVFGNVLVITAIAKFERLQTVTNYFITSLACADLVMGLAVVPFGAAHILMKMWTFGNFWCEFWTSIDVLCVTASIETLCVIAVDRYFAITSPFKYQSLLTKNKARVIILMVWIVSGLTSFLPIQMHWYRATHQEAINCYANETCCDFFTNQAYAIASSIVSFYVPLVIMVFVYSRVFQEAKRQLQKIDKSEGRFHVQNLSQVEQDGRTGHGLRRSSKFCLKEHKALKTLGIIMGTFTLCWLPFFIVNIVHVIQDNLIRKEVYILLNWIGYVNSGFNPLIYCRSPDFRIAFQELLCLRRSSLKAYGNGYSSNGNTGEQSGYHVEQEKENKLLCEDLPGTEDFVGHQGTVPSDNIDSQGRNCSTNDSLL

- β2-AR activity (β-arrestin2 recruitment) after 360 nm light flashes: a drop in β2-AR activity is observed
Compound: CC(C)NCC(O)COc1cccc(N=Nc2ccccc2)c1 (stereo not shown) [Opto-prop-2]
